# Assay results published in article PMC12888861, “Antibacterial activity of enmetazobactam against Acinetobacter spp.: a molecular dissection of mechanism of action and resistance determinants” (Antimicrobial Agents and Chemotherapy, 2025).
# How the values were obtained:
# [1] = tested on: carbapenem-resistant CHDL-producing A. baumannii isolates (OXA-23, OXA-24/40, OXA-58); test: Checkerboard synergy assay (FIC index); format: cell-based, Acinetobacter baumannii; settings: Acinetobacter baumannii, alone or in presence of the partner
# Method: Checkerboard assays were performed to assess synergistic interactions between the cefepime/enmetazobactam combination and sulbactam, as well as between enmetazobactam alone and either sulbactam or colistin. […] The assays were conducted with three multidrug-resistant A. baumannii isolates from the Spanish Multicenter Collection, each producing a different OXA-type carbapenemase: OXA-23, OXA-24/40, or OXA-58. The FIC index was calculated and interpreted as follows: FICindex ≤ 0.5, synergy; FICindex > 0.5–4, no synergy; and FICindex > 4, antagonism ([33], [34]).
# [2] = tested on: Acinetobacter spp. clinical isolates; test: MBC testing, nine clinical isolates; format: cell-based; settings: for MBC relative to MIC: nine clinical isolates, most of the isolates
# Method: In order to determine the bactericidal activity of enmetazobactam, MBC testing was carried out by subculturing 100 μL aliquots from wells containing antimicrobial concentrations equal to or greater than the MIC of enmetazobactam onto Mueller-Hinton agar plates. […] The MBCs were evaluated for a total of nine clinical isolates: (i) three CRAB, (ii) three carbapenem-susceptible A. baumannii, and (iii) three A. non-baumannii isolates. The plates were incubated at 37°C for 24 h, and viable colonies were counted.
# OXA-23 = target: T1, OXA-23 (Acinetobacter baumannii, UniProt Q9L4P2); test: Jump-dilution dissociation assay (koff, t1/2) with OXA-23; format: biochemical; settings: jump dilution, accurate koff not determinable
# T1 construct: GST (N); made in house; host or cells: Escherichia coli BL21
# T1 sequence (Q9L4P2 18-273): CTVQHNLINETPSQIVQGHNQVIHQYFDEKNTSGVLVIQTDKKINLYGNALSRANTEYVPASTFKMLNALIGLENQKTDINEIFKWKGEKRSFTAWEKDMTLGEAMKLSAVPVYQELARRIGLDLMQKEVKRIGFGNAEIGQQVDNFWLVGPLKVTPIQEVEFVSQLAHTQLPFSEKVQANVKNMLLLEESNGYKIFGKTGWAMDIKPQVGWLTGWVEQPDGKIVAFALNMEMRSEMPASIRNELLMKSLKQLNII
# Method: The Michaelis-Menten constant (Km) was determined by fitting the data to the Michaelis-Menten equation, following established protocols ([38]). The kcat (hydrolysis rate constant of the β-lactamase) was obtained by linearization of the kinetic data ([39]). To assess the possible inhibitory capacity of enmetazobactam against the CHDLs of A. baumannii, specific OXA-23 inhibition kinetics assays were performed in a Nanoquant Infinite spectrophotometer (Tecan). […] Also, the dissociation constant (koff), which represents the rate at which the enzyme-inhibitor complex dissociates (i.e., the proportion of the enzyme-inhibitor complex that dissociates per unit of time), was determined through a jump-dilution assay that monitored OXA-23 activity recovery as the enzyme-inhibitor complex dissociated. OXA-23 (1 µM) was preincubated for 30 min at 37°C with excess of inhibitors (50× IC₅₀) to ensure full acyl-enzyme complex formation. Subsequently, the mixture was diluted 1:5,000 to allow gradual complex dissociation. […] Enzymatic activity, reflecting the progressive dissociation of the acyl-enzyme complex, was monitored spectrophotometrically at 490 nm for 8 h. The resulting progress curves were fitted using GraphPad Prism (GraphPad Software, MA, USA) to equation 1 to estimate koff, where V0 is the initial, inhibited enzyme velocity; Vs is the steady-state uninhibited enzyme velocity, and t is time.
# (1) P=Vs×t+(V0−Vs)×[1−exp^(−koff × t)]/koff
# [3] = checkerboard sulbactam x enmetazobactam, isolate Ab4 (OXA-23)
# [4] = checkerboard sulbactam x enmetazobactam, isolate Ab138 (OXA-58)
# [5] = checkerboard sulbactam x enmetazobactam, isolate Ab180 (OXA-24/40)
# [6] = Acinetobacter, isolate NO-Ab84, A. bereziniae
# [7] = Acinetobacter, isolate NO-Ab88, A. dijkshoorniae
# [8] = isolate Ab1, A. baumannii ST 164, ADC-6, OXA-91, non-CHDLs-producing
# [9] = isolate Ab4, A. baumannii ST 2, ADC-30, OXA-66, ISAba1-OXA-23
# [10] = isolate Ab6, A. baumannii ST 2, ADC-30, OXA-66, ISAba1-OXA-23, TEM-12
# [11] = isolate Ab9, A. baumannii ST 2, ADC-30, OXA-66, OXA-23, TEM-12
# [12] = isolate Ab11, A. baumannii ST 239, ADC-2, OXA-51, non-CHDLs-producing
# [13] = isolate Ab34, A. baumannii ST 2182, ADC-2, OXA-130, non-CHDLs-producing
Structure (SMILES),"MIC ([1]; checkerboard colistin x enmetazobactam, isolate Ab4 (OXA-23))","MIC ([1]; checkerboard colistin x enmetazobactam, isolate Ab138 (OXA-58))","MIC ([1]; checkerboard colistin x enmetazobactam, isolate Ab180 (OXA-24/40))","MIC [1, 3]","MIC [1, 4]","MIC [1, 5]","MBC [2, 6]","MBC [2, 7]","MBC [2, 8]","MBC [2, 9]","MBC [2, 10]","MBC [2, 11]","MBC [2, 12]","MBC [2, 13]","MBC ([2]; isolate NO-Ab89, A. pittii)",MBC relative to MIC [2],koff relative to that of durlobactam (OXA-23)
C[n+]1ccn(C[C@@]2(C)[C@H](C(=O)[O-])N3C(=O)C[C@H]3S2(=O)=O)n1 [enmetazobactam],64 µg/mL,32 µg/mL,16 µg/mL,128 µg/mL,32 µg/mL,16 µg/mL,2 µg/mL,2 µg/mL,4 µg/mL,64 µg/mL,64 µg/mL,8 µg/mL,16 µg/mL,8 µg/mL,2 µg/mL,the same or up to twofold higher,"> 1,000 fold"
CC1(C)[C@H](C(=O)O)N2C(=O)C[C@H]2S1(=O)=O [sulbactam],–,–,–,16 µg/mL,8 µg/mL,2 µg/mL,1 µg/mL,0.5 µg/mL,1 µg/mL,16 µg/mL,16 µg/mL,4 µg/mL,2 µg/mL,0.5 µg/mL,0.5 µg/mL,the same or up to twofold higher,–
